Assay results reported in article PMC8241002, “A tumor-targeting cRGD-EGFR siRNA conjugate and its anti-tumor effect on glioblastoma in vitro and in vivo” (Drug Delivery, 2017).
Oligonucleotides are written 5' to 3', each unit as a sugar letter and its base; * is a phosphorothioate linkage, no mark a phosphodiester; rarer units and linkages stand in square brackets, end groups in braces. Plain capitals give the bases only. d = 2'-deoxy (DNA); m = 2'-O-methyl; r = 2'-OH (RNA)

Columns and labels:
[1] = Serum stability in mouse serum (agarose gel electrophoresis); format: in vitro ADME; details: 37 °C
Experimental: Five microliters of 20 μM cRGD-siEGFR or EGFR siRNA was mixed with 5 μL of mouse serum and incubated at 37 °C for 0, 12, 24, 36 and 48 h. Aliquots were taken at each of the time points and subjected to electrophoresis in 1.2% non-denaturing agarose gels.
(§1) Figure S1. The characterization of cRGD-siEGFR conjugates and silencing efficiency of EGFR siRNA sequences. (A) The identification of cRGD-siEGFR by HPLC-MS. The measured mass of the sense strand conjugated with cRGD is 7923.4 Da (predicted mass is 7921.4 Da). (B) The analysis of purified cRGD-siEGFR with RP-HPLC. The purity of cRGD-siEGFR, calculated by the peak area normalization method, was 88.0%. (C) The serum stability of cRGD-siEGFR and EGFR siRNA sequences. Molecules were incubated in mouse serum at 37°C for the indicated time periods and then analyzed using agarose (1.2%) gel electrophoresis. (D) Gene silencing efficiency. U87MG cells were treated for 48 h with EGFR-targeting siRNAs, complexed with Lipofectamine 2000. The expression level of EGFR mRNA was analyzed by qRT-PCR. * P<0.05 vs. control group, # P<0.05 vs. siNC group, n=3

[2] = tested on: EGFR mRNA; assay: Gene silencing efficiency of EGFR siRNA sequences complexed with Lipofectamine 2000 (qRT-PCR); format: cell-based, human; details: U87MG cells, 48 h, complexed with Lipofectamine 2000, EGFR mRNA by qRT-PCR, n=3
Experimental: The relative expression level of EGFR mRNA was tested by qRT-PCR.
The qRT-PCR and western blot analysis were conducted as previously described (Liu et al., [2014]).
as §1

Substance | stability (three 2′-O-Me modifications on both ends of both strands) ([1]; mouse serum, agarose gel electrophoresis) | silencing efficiency [2] | degradation in mouse serum after 24 h ([1]; 5 μL of 20 μM mixed with 5 μL mouse serum, 24 h, 1.2% non-denaturing agarose gel electrophoresis)
EGFR siRNA-C: Sense 5’mCmAmAAGUGUGUAACGGAmAmUmAdTdT-3’; antisense 5’mUmAmUUCCGUUACACACUmUmUmGdTdT-3’ (sense CAAAGUGUGUAACGGAAUATT; antisense UAUUCCGUUACACACUUUGTT; sugars from the 5' end m3 r13 m3 d2, backbone not given here; further chemistry not fully specified) | obviously improved | over 80% | 
unmodified RNA oligonucleotides: Sense 5’CAAAGUGUGUAACGGAAUAdTdT-3’; antisense 5’UAUUCCGUUACACACUUUGdTdT-3’ (sense rCrArArArGrUrGrUrGrUrArArCrGrGrArArUrAdTdT; antisense rUrArUrUrCrCrGrUrUrArCrArCrArCrUrUrUrGdTdT) |  |  | mostly degraded
